The source made the active and inactive calls.
Columns and labels:
[1] = target: T1, Polyadenylate-binding protein 1 (Homo sapiens, UniProt P11940); assay: MLLE binding blockers, Cy5 peptide tracer – biochemical, fluorescence polarization, Cy5-PAM2 peptide, secondary, miRNA deadenylation inhibitor project, dose response (AID 602260); type: functional; details: read-out: IC50_Mean
[2] = target: T1, Polyadenylate-binding protein 1; assay: MLLE domain peptide-binding blockers, IC50 – biochemical, fluorescence polarization, FITC-PAM2 peptide, dose response (AID 602259); type: functional; details: read-out: IC50_Mean
H9c2 = assay: cells; type: functional, cell-based; details: Rattus norvegicus, H9c2, Myocardium
H4 = assay: Luminescence Cell-Based Dose Response HTS to Identify Activators of 5'UTR Stem-Loop Driven Prion Protein mRNA Translation in H4 Neuroglioblastoma Cells. [Related pubchem assays: 1829 (Project Summary), 1814 (Primary HTS)]; type: functional; details: Homo sapiens
[3] = Luminescence Cell-Based Dose Response HTS to Identify Activators of Luciferase Translation or Activity in H4 […] Cells. [Related pubchem assays: 1829 (Project Summary), 1814 (Primary HTS)]; type: functional
Protein skinhead-1 = target: T2, Protein skinhead-1 (Caenorhabditis elegans, UniProt P34707); type: functional
T2 sequence (P34707 whole entry): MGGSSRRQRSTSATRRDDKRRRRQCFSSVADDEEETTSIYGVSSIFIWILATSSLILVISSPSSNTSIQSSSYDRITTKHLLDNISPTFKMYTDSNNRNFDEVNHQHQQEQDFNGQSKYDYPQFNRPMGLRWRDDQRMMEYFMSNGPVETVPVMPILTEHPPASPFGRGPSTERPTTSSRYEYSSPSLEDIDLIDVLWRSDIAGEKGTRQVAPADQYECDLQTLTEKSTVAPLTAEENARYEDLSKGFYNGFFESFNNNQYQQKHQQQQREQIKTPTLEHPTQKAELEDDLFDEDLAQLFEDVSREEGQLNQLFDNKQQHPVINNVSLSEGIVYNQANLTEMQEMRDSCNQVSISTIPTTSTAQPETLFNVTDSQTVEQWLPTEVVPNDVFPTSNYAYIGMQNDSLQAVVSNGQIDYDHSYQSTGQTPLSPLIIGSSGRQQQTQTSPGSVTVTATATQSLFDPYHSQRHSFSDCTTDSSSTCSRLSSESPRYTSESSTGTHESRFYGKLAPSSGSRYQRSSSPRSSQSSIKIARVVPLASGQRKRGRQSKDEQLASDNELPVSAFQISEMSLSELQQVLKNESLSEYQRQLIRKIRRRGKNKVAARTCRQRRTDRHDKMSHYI

[4] = loss of viability in HepG2 cells – cell-based, CellTiter-Glo, cherry-picked, cytotoxicity control for Shn3 inhibitor project, dose response (AID 624134); type: functional
[5] = non-specific 3'UTR reporter inhibition in Clone20-Shn3RL – cell-based, Renilla luciferase, cherry-picked, counter-screen for Shn3 inhibitor project, dose response (AID 624133); type: functional
Streptococcus = assay: GAS UMAA2166 growth inhibition – luminescence, BacTiterGlo, counter-screen for streptokinase expression inhibitor project, dose response (AID 1915); type: functional, organism-based;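 note: potency for reduction of bacterial viability or growth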
[6] = NIH3T3 cell viability loss – ATP luminescence, mouse fibroblasts, counter-screen, dose response (AID 2010); type: functional, cell-based;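 note: cells exposed to compound for about 90 hours before reading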
Streptokinase A = target: T3, Streptokinase A (Streptococcus pyogenes serotype M1, UniProt P10520); assay: viability-normalized secreted streptokinase activity reduction – plasminogen activation absorbance, OD405, dose response (AID 1914); type: functional, Streptococcus pyogenes M1 GAS;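 note: secreted streptokinase activity via plasminogen activation per viability signal from cell pellet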
T3 sequence (P10520 whole entry): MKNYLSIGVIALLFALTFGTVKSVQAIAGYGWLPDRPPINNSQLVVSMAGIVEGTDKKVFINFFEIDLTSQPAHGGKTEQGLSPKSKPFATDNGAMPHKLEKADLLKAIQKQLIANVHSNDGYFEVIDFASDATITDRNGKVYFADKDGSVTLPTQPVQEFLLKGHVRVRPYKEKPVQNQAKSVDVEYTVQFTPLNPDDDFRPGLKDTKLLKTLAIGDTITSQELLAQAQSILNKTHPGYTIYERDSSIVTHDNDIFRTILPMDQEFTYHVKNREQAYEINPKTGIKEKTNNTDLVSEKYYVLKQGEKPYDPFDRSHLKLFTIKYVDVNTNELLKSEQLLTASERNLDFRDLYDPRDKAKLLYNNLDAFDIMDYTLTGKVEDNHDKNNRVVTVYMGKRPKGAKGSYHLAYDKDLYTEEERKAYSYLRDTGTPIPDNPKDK

[7] = Trypanosoma cruzi growth suppression in host cells – NIH3T3 host cells, beta-gal luminescence, confirmation (AID 2044); type: functional, cell-based;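 note: intracellular parasites grown in NIH/3T3 mouse fibroblasts as host cells; luminescent beta-galactosidase reporter signal from transgenic T. cruzi replicating inside host cells; inhibitors lower the luminescence signal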
Cytochrome P450 2D6 = Cytochrome P450 2D6 (Homo sapiens, UniProt P10635);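 note: CYP2D6 member of a cytochrome P450 panel assay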
[8] = reduction of Shn3 3'UTR-driven luciferase in osteoblasts – cell-based, Clone20 osteoblasts, firefly luciferase, cherry-picked, dose response (AID 624132); type: functional;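 note: firefly luciferase luminescence from reporter carrying the Shn3 3'UTR in osteoblasts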
[9] = test system: Streptococcus sp. 'group A'; assay: Streptococcus pyogenes SK(-)GAS viability under kanamycin – luminescence, BacTiterGlo, confirmation, counter-screen for streptokinase expression inhibitor project, dose response (AID 1900); type: functional, organism-based
Cytochrome P450 1A2 = target: T4, Cytochrome P450 1A2 (Homo sapiens, UniProt P05177);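 note: PubChem cytochrome P450 panel assay, CYP1A2 panel member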
T4 sequence (P05177 whole entry): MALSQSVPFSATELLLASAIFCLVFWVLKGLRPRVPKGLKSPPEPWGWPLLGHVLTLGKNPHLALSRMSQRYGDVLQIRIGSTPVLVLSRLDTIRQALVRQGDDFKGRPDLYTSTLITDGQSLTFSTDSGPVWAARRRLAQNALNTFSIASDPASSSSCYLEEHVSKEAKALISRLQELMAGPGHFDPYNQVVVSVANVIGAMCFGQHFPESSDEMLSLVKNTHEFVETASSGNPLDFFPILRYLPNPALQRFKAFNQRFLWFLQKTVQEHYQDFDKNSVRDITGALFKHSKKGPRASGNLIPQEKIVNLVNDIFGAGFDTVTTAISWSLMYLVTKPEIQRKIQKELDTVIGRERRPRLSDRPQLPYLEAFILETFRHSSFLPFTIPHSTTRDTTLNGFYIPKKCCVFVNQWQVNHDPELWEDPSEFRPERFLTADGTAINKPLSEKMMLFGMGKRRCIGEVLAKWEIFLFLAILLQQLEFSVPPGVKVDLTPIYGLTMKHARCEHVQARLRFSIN

Cytochrome P450 2C9 = Cytochrome P450 2C9 (Homo sapiens, UniProt P11712)
Chain of Cytochrome P450 2C9 (P11712 whole entry): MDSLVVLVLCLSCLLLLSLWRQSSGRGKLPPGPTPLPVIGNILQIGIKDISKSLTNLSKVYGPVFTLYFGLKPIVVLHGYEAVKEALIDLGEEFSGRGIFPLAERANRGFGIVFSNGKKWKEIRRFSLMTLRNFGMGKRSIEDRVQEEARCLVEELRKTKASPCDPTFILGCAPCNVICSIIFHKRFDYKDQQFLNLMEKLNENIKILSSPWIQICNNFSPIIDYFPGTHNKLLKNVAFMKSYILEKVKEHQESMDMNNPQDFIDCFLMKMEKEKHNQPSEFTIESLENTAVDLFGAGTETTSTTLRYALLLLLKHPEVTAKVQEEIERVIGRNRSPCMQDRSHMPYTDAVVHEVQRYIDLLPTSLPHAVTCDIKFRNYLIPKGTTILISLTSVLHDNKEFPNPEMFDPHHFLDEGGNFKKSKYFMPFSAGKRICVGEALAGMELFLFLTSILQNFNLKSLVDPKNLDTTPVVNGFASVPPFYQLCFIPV

T1 sequence (P11940 whole entry, the tested form may be a part): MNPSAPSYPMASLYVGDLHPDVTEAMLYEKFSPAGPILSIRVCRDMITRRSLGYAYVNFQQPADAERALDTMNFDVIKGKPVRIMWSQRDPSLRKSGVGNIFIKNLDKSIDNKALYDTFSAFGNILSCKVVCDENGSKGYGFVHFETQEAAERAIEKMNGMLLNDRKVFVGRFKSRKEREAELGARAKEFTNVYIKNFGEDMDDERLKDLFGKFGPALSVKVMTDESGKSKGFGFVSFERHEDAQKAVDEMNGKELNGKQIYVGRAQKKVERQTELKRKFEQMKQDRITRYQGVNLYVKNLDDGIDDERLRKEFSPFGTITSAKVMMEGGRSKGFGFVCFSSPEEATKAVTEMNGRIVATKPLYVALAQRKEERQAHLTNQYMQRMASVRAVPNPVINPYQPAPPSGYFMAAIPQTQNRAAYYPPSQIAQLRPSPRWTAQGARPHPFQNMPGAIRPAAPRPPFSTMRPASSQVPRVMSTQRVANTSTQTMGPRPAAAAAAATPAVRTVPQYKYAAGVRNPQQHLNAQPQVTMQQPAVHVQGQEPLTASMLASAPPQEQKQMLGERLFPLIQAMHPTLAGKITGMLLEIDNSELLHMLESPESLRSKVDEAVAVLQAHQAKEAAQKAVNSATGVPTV
Chain of Cytochrome P450 2D6 (P10635 whole entry): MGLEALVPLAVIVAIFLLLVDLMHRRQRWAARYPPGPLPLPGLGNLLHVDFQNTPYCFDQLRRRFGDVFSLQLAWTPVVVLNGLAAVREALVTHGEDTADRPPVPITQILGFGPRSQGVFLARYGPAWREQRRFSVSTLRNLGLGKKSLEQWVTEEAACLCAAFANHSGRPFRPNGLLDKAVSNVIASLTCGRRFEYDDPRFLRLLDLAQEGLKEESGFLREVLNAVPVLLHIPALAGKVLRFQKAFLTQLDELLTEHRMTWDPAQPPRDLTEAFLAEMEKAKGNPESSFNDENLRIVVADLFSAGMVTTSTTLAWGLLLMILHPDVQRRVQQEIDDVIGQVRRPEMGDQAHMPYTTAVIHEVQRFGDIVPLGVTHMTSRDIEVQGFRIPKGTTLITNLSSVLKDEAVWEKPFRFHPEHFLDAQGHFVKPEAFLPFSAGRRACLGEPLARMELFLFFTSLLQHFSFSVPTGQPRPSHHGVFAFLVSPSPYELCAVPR

## COc1ccc2oc(=O)c(C(=O)OCc3ccccc3)cc2c1
[1]
  IC50: > 66 µM (inactive)
[2]
  IC50: > 66 µM (inactive)

## COc1ccc(C(C)=O)cc1COC(=O)Cc1nnc(O)c2ccccc12
H9c2
  IC50: > 79 µM (inactive)

## O=C(NN=C(NS(=O)(=O)c1ccc(Cl)cc1)c1ccccc1)c1cccc(Cl)c1
H4
  EC50: > 120 µM (not active)
[3]
  EC50: 7.54 µM (active)

## Cc1cc2ccccn2c1C(=O)Nc1cccc(Cl)c1
Protein skinhead-1
  IC50: > 100 µM (inactive)

## Cc1c(NC(=O)Cn2[nH]c(=O)c3ccccc3c2=O)c(=O)n(-c2ccccc2)n1C
H9c2
  IC50: 38.5 µM (inactive)

## O=C(/C=C/c1ccccc1)NC(NC(=S)Nc1ccc(Cl)cc1)C(Cl)(Cl)Cl (stereo not given)
[4]
  AC50: 26.7 µM (active)
[5]
  AC50: 30.4 µM (active)
Streptococcus
  EC50: > 150 µM (not active)
[6]
  EC50: > 60 µM (not active)
Streptokinase A
  EC50: > 150 µM (not active)
[7]
  EC50: 1.08 µM (active)
Cytochrome P450 2D6
  AC50: 7.94 µM (inconclusive)
[8]
  AC50: 5.13 µM (active)
[9]
  EC50: 5.79 µM (active)

## Fc1ccc(-n2nnc(-c3nccs3)n2)cc1
Protein skinhead-1
  IC50: 22.8 µM (active)

## O=C(CN(Cc1ccco1)C(=O)CNS(=O)(=O)c1ccc(Cl)cc1)NC1CCCCC1
Protein skinhead-1
  IC50: > 100 µM (inactive)

## O=C(NC(=S)Nc1ncccn1)c1ccccc1Cl
[1]
  IC50: > 66 µM (inactive)
[2]
  IC50: > 66 µM (inactive)

## Brc1ccc(OCc2n[nH]c(-c3ccccn3)n2)cc1
Protein skinhead-1
  IC50: > 100 µM (inactive)

## N#Cc1c(O)nc(-c2ccco2)c2c1CCCC2
[1]
  IC50: > 66 µM (inactive)
[2]
  IC50: > 66 µM (inactive)

## CCN(c1c(C)n(C)n(-c2ccccc2)c1=O)S(C)(=O)=O
[1]
  IC50: > 66 µM (inactive)
[2]
  IC50: > 66 µM (inactive)

## CC(C)c1nc2oc3ccccc3c(=O)c2c(=O)n1-c1ccccc1
Cytochrome P450 1A2
  AC50: 39.8 µM (inconclusive)
Cytochrome P450 2C9
  AC50: 1.78 µM (inconclusive)
[3]
  EC50: 63.4 µM (active)

## Brc1ccc2nc(N3CCCC3)sc2c1
Protein skinhead-1
  IC50: 79.4 µM (inactive)

## Cc1cnc(C(=O)Nc2ccccc2-c2ccc(C)o2)cn1
Protein skinhead-1
  IC50: > 100 µM (inactive)

## COc1ccccc1OCC(=O)Nc1sc2c(c1C(=O)NCC1CCCO1)CCC2 (stereo not given)
H9c2
  IC50: 30.4 µM (inactive)

## CC(=O)C1=C(O)C(=O)N(C)C1c1ccccc1[N+](=O)[O-] (stereo not given)
[1]
  IC50: > 66 µM (inactive)
[2]
  IC50: > 66 µM (inactive)

## COc1cccc(CN2CCN(C(=O)c3cc(-c4cccnc4)nc4ccc(C)cc34)CC2)c1
H9c2
  IC50: 11.6 µM (active)

## COc1ccccc1C(=O)NCCn1ccc2ccccc21
[1]
  IC50: > 66 µM (inactive)
[2]
  IC50: > 66 µM (inactive)

## CN(C)S(=O)(=O)c1cccc(NC(=O)c2cccc(S(=O)(=O)N3CCc4ccccc43)c2)c1
[4]
  AC50: 60.9 µM (active)
[5]
  AC50: 11.7 µM (active)
[8]
  AC50: 3.92 µM (active)

## O=S(=O)(c1ccc(Cl)cc1)c1cc(O)ccc1O
H9c2
  IC50: 12.4 µM (active)

Reference: ChEMBL document CHEMBL1201862, “PubChem BioAssay data set” (2004)
